Measured values taken from patent US8686010B2, “Aryl- or heteroaryl-sulfonyl compounds as acid secretion inhibitors” (Takeda Pharmaceutical Company Limited, priority 2006, dated 2014).
Counter-ions that a name gives are not always drawn.

Molecular target: T1, H+,K+-ATPase (Sus scrofa, UniProt P19156)
T1 construct: The obtained microsomal fraction was used as a proton, potassium—adenosine triphosphatase standard product; from tissue; host or cells: swine stomach, gastric mucous membrane microsomal fraction
Assay: Proton potassium-adenosine triphosphatase (H+,K+-ATPase) inhibitory activity test
Format: biochemical
Conditions: gastric mucous membrane microsomal fraction from swine stomach; pH 6.5, 37° C., malachite green colorimetry at 610 nm; read-out: IC50 (50% inhibitory concentration of proton, potassium-adenosine triphosphatase)
Description: Proton Potassium—Adenosine Triphosphatase (H^+,K^+-ATPase) Inhibitory Activity Test
According to the method [Biochim. Biophys. Acta, 728, 31 (1983)] of Wallmark et al., a gastric mucous membrane microsomal fraction was prepared from the stomach of swine. First, the stomach was removed, washed with tap water, immersed in 3 mol/L brine, and the surface of the mucous membrane was wiped with a paper towel. The gastric mucous membrane was detached, chopped, and homogenized in a 0.25 mol/L saccharose solution (pH 6.8) containing 1 mmol/L EDTA and 10 mmol/L tris-hydrochloric acid using polytron (Kinematica). The obtained homogenate was centrifuged at 20,000×g for 30 min and the supernatant was centrifuged at 100,000×g for 90 min. The precipitate was suspended in 0.25 mol/L saccharose solution, superimposed on a 0.25 mol/L saccharose solution containing 7.5% Ficoll, and centrifuged at 100,000×g for 5 hr. The fraction containing the interface between the both layers was recovered, and centrifugally washed with 0.25 mol/L saccharose solution.
The obtained microsomal fraction was used as a proton, potassium—adenosine triphosphatase standard product.
To 40 μL of a 50 mmol/L HEPES-tris buffer (5 mmol/L magnesium chloride, 10 mmol/L potassium chloride, 10 μmol/L valinomycin, pH=6.5) containing 2.5 μg/mL (based on the protein concentration) of the enzyme standard product was added a test compound (5 μL) dissolved in a 10% aqueous dimethyl sulfoxide solution, and the mixture was incubated at 37° C. for 30 min. The enzyme reaction was started by adding 5 μL of a 2 mmol/L adenosine triphosphate tris salt solution (50 mmol/L HEPES-tris buffer (5 mmol/L magnesium chloride, pH 6.5)). The enzyme reaction was performed at 37° C. for 20 min, and 15 μL of a malachite green solution (0.12% malachite green solution in sulfuric acid (2.5 mol/L), 7.5% ammonium molybdate and 11% Tween 20 were mixed at a ratio of 100:25:2) was added to quench the reaction. After allowing to stand at room temperature for 15 min, the resulting reaction product of inorganic phosphorus with malachite green was colorimetrically determined at a wavelength of 610 nm. In addition, the amount of the inorganic phosphoric acid in the reaction solution free of potassium chloride was measured in the same manner, which was subtracted from the inorganic phosphoric acid amount in the presence of potassium chloride to determine the proton, potassium—adenosine triphosphatase activity. The inhibitory rate (%) was determined from the activity value of the control activity value and the activity values of various concentrations of the test compound, and the 50% inhibitory concentration (IC50) of the proton, potassium-adenosine triphosphatase was determined.

T1 sequence (P19156 2-1034 limits assumed): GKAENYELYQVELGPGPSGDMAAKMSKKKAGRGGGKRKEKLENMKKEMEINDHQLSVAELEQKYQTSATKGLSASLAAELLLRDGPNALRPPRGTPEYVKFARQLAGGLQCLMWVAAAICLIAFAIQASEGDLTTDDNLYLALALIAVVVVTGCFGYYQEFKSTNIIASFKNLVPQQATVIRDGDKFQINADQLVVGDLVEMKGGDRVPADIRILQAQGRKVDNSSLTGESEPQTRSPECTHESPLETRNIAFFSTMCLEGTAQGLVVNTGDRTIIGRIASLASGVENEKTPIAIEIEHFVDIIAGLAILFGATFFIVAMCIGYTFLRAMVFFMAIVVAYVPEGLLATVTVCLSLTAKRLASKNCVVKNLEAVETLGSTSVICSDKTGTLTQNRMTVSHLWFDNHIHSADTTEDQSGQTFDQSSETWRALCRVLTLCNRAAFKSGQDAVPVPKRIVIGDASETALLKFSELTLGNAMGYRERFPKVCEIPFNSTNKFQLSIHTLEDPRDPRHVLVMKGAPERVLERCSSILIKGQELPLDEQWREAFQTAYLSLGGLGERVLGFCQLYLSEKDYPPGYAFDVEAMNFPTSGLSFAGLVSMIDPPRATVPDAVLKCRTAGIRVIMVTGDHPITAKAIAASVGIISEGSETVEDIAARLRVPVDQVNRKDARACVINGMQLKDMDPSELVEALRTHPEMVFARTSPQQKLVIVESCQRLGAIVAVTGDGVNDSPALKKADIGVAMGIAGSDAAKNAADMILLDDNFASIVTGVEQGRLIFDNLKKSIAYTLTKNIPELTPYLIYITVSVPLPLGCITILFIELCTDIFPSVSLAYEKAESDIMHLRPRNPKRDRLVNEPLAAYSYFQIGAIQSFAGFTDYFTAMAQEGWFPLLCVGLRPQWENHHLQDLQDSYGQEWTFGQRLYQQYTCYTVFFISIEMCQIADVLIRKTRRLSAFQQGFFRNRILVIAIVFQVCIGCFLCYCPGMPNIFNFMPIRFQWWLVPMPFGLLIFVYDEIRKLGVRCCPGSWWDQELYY
T1 sequence (P18434 whole entry partner): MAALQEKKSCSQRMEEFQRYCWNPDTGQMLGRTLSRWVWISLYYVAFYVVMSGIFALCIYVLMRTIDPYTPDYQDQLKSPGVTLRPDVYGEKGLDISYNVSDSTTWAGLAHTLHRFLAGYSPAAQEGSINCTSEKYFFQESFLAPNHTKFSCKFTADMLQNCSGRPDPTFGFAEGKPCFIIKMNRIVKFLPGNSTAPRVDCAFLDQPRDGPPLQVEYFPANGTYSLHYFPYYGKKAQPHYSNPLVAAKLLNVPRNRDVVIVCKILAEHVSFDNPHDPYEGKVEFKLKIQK

| Compound | IC50 |
| --- | --- |
| CNCc1nc(-c2ccccc2)c(S(=O)(=O)c2ccccc2)s1 [Example 12, N-methyl-1-[4-phenyl-5-(phenylsulfonyl)-1,3-thiazol-2-yl]methanamine hydrochloride] | 170 nM |
| CNCc1cn(S(=O)(=O)c2cccc(OC)c2)c(-c2ccccc2)n1 [Example 7, 1-{1-[(3-methoxyphenyl)sulfonyl]-2-phenyl-1H-imidazol-4-yl}-N-methylmethanamine fumarate] | 30 nM |
| Cc1ccc(S(=O)(=O)n2cc(CN(C)C)nc2-c2ccccc2)cc1 [Example 5, N,N-dimethyl-1-{1-[(4-methylphenyl)sulfonyl]-2-phenyl-1H-imidazol-4-yl}methanamine 0.5 oxalate] | 160 nM |
| CNCc1cn(-c2ccccc2)c(S(=O)(=O)c2ccccc2)c1C [Example 1, N-methyl-1-[4-methyl-1-phenyl-5-(phenylsulfonyl)-1H-pyrrol-3-yl]methanamine hydrochloride] | 180 nM |
